A word on the TGI: it is the concentration giving total growth inhibition.

This note sets out measurements from PubChem BioAssay (NCI).

Test systems include SK-OV-3 ovarian; SNB-75 CNS; SN12C renal; COLO 205 colon; M14 melanoma; HOP-92 NSCLC; U251 CNS.
Holding throughout (test): DTP human tumour cell line panel, 48 h

Values joined by “and” are separate entries in the source; they are usually repeats but may differ in a detail not shown here. Identical values can stand only once.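 Test compounds were applied to cells in 96-well plates for 48 hours at 5 doses. TGI denotes the concentration required for complete inhibition of growth.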 Bounds are passed on as bounds.

For `O=S1(=O)N2CN3CN(C2)CN1C3`, the TGI with SK-OV-3 ovarian was 868 µM; with SNB-75 CNS it was 69.2 µM; in the experiment with SN12C renal it was 158 µM; in the experiment on COLO 205 colon, > 31.6 µM and 73.8 µM; with M14 melanoma it was 355 µM.

In the case of `CCCCC1=CSC(c2ccccc2)=C(c2ccccc2)S1`, the TGI in the experiment with SK-OV-3 ovarian is above 100 µM; in the experiment with SNB-75 CNS, above 100 µM; in the experiment with SN12C renal, above 100 µM; with HOP-92 NSCLC, 60.9 µM; in the experiment with U251 CNS, above 100 µM; in the experiment with COLO 205 colon, above 100 µM. The same molecule returned a total growth inhibition concentration (TGI) in the experiment with M14 melanoma above 100 µM.

Regarding `O=[N+]([O-])c1ccc(C2=Nc3ccccc3S(=O)C(c3ccccc3)C2)cc1` (configuration not stated), the TGI in the experiment on SK-OV-3 ovarian is 73.6 µM; in the experiment on SNB-75 CNS, 53.3 µM; with SN12C renal, 53.7 µM; with COLO 205 colon, 40 µM; in the experiment on M14 melanoma, 42 µM.

`Nc1nncc2c1c(Br)cn2C1OC(CO)C(O)C1O` (configuration not stated): the concentration for total growth inhibition (TGI) in the experiment on SK-OV-3 ovarian is above 100 µM; in the experiment with SNB-75 CNS, above 100 µM; in the experiment with SN12C renal it was above 100 µM; in the experiment on HOP-92 NSCLC, 62.3 µM; in the experiment on U251 CNS, above 100 µM; in the experiment with COLO 205 colon, above 100 µM. Also, the TGI in the experiment with M14 melanoma is above 100 µM.

As for `O=C(O/N=C1\CCCC\C1=C/c1ccccc1)c1ccc([N+](=O)[O-])cc1`, the total growth inhibition concentration (TGI) in the experiment with SK-OV-3 ovarian, in the experiment on SNB-75 CNS, in the experiment with SN12C renal, in the experiment on HOP-92 NSCLC, in the experiment with U251 CNS and in the experiment with COLO 205 colon was above 100 µM in each case. Also, the TGI in the experiment with M14 melanoma is above 100 µM.

On to `Cc1ccc(NC(=O)CCCC(=O)CC(=O)c2ccc(Br)cc2)cc1`, for which the TGI in the experiment on SK-OV-3 ovarian, in the experiment with SNB-75 CNS, in the experiment on SN12C renal, in the experiment on HOP-92 NSCLC, with U251 CNS and in the experiment with COLO 205 colon was above 100 µM throughout. The same molecule yielded a TGI in the experiment on M14 melanoma above 100 µM.

Take `O=C1c2ccccc2C(=O)c2cc3c(cc21)CS(=O)C3`: the TGI with SK-OV-3 ovarian is above 100 µM; with SNB-75 CNS, above 100 µM; in the experiment on SN12C renal it was 43.3 µM; in the experiment on HOP-92 NSCLC, above 100 µM; with U251 CNS, above 100 µM; in the experiment on COLO 205 colon, above 100 µM. For the same molecule, the concentration for total growth inhibition (TGI) with M14 melanoma is above 100 µM.

Take `O=C1C(c2ccccc2)=C(c2ccccc2)C(c2ccc(Cc3ccc(C4=C(c5ccccc5)C(=O)C(c5ccccc5)=C4c4ccccc4)cc3)cc2)=C1c1ccccc1`: the TGI with SK-OV-3 ovarian, with SNB-75 CNS, in the experiment on HOP-92 NSCLC, with U251 CNS and in the experiment with COLO 205 colon was above 100 µM each time.

As to `N#CCCn1[nH]c(=O)c(Cl)c(Cl)c1=O`, the TGI turned out to be 26.7 µM in the experiment on SNB-75 CNS; 32.5 µM in the experiment with SN12C renal; 16.6 µM in the experiment with HOP-92 NSCLC; 30.3 µM with U251 CNS; 57.3 µM in the experiment on COLO 205 colon.

For the molecule `COC1C2C[C@@H](O)CCC2C(C(=O)OCCl)C[C@H]1O` (some centres not stated), the TGI in the experiment with SK-OV-3 ovarian, in the experiment with SNB-75 CNS, in the experiment with SN12C renal, with U251 CNS, in the experiment with COLO 205 colon and in the experiment with M14 melanoma was above 100 µM throughout.

For `Nc1nnc2c(-c3ccccc3)[nH]nc2n1`, the total growth inhibition concentration (TGI) with SN12C renal was above 100 µM; in the experiment on HOP-92 NSCLC, 63.6 µM; in the experiment with COLO 205 colon, above 100 µM; with M14 melanoma, above 100 µM.

As for `O=C(c1ccc(O)cc1O)C1C(c2ccc(O)cc2)OC(c2ccc(O)cc2)C1C(=O)c1ccc(O)cc1O` (configuration not stated), the total growth inhibition concentration (TGI) in the experiment on SNB-75 CNS was found to be 42.1 µM; in the experiment on U251 CNS, 32.9 µM; with M14 melanoma, 34.5 µM.

With `Cn1c(CBr)nc2c1C(=O)c1nc(CBr)[nH]c(=O)c1C2=O`, the concentration for total growth inhibition (TGI) in the experiment with SK-OV-3 ovarian, in the experiment on SN12C renal, with HOP-92 NSCLC, with U251 CNS, with COLO 205 colon and in the experiment on M14 melanoma was above 100 µM each time.

Consider `Nc1ccc2n[se]nc2c1`, for which the TGI with SK-OV-3 ovarian, in the experiment with SNB-75 CNS, in the experiment with SN12C renal, in the experiment on U251 CNS and in the experiment with M14 melanoma was above 100 µM in each case.

With `CC(=O)C1CCN(c2ccccc2)C1` (configuration not stated), the TGI with SK-OV-3 ovarian, in the experiment with SNB-75 CNS, in the experiment on SN12C renal, in the experiment on HOP-92 NSCLC, in the experiment on U251 CNS and in the experiment with M14 melanoma was above 100 µM in each case.

Regarding `CC(C)(C)c1cc(CCC(=O)Nc2ccc(Cl)cc2)[nH]c(=S)n1`, the TGI in the experiment with SK-OV-3 ovarian, in the experiment with SNB-75 CNS, in the experiment with SN12C renal, in the experiment on U251 CNS, with COLO 205 colon and in the experiment on M14 melanoma was above 100 µM each time.

As to `CN=c1ss/c(=N\C(=S)N(C)C)n1C`, the concentration for total growth inhibition (TGI) in the experiment on SK-OV-3 ovarian, in the experiment on SNB-75 CNS, in the experiment with SN12C renal, in the experiment on HOP-92 NSCLC, in the experiment on U251 CNS and in the experiment on M14 melanoma was above 100 µM each time.
